Experimental data: patent US9926297B2, “Bicyclic AZA compounds as muscarinic M1 receptor and/or M4 receptor agonists” (Heptares Therapeutics Limited, priority 2014, dated 2018)

What was measured:
[1] = molecular target: T1, human muscarinic M2 receptor (Homo sapiens, UniProt P08172); assay: Alphascreen Surefire phospho-ERK1/2 functional assay, M2; details: for Emax: CHO, read-out: % Emax cf. ACh, M2, CHO cells stably expressing human M2, relative to ACh
T1 sequence (P08172 1-466): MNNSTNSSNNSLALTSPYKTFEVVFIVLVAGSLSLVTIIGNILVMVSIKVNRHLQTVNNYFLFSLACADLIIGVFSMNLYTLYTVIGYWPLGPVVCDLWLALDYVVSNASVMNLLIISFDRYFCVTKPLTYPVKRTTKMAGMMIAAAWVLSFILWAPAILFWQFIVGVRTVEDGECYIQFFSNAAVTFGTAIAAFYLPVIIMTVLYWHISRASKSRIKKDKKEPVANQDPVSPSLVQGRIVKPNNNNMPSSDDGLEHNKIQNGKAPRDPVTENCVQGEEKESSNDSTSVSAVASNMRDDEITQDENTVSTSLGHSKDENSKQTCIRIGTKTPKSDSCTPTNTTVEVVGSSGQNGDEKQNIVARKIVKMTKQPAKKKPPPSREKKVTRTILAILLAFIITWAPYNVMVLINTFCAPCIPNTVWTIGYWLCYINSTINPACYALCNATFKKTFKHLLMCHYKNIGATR

[2] = molecular target: T2, human muscarinic M4 receptor (Homo sapiens, UniProt P08173); assay: Alphascreen Surefire phospho-ERK1/2 functional assay, M4; format: cell-based; details: for EC50: phospho-ERK1/2, * = variable results, read-out: pEC50 M4 (converted); for Emax: CHO, read-out: % Emax cf. ACh, M4, CHO cells stably expressing human M4
T2 construct: expressed in transfected cells
T2 sequence (P08173 1-479): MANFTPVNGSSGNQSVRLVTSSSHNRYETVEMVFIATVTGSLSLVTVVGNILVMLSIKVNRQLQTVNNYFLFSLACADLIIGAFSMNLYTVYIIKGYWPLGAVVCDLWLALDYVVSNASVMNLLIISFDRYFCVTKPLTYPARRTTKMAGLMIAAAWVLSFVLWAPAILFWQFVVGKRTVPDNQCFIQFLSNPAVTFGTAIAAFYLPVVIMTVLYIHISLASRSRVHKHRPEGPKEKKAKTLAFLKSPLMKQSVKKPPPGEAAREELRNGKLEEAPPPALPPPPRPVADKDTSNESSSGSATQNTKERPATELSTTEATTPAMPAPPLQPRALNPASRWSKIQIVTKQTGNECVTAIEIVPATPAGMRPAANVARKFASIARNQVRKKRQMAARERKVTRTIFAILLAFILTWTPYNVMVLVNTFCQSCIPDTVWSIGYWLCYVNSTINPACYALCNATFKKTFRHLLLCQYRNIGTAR

[3] = molecular target: T3, human muscarinic M1 receptor (Homo sapiens, UniProt P11229); assay: Alphascreen Surefire phospho-ERK1/2 functional assay, M1; format: cell-based; details: for EC50: phospho-ERK1/2, * = variable results, read-out: pEC50 M1 (converted); for Emax: CHO, read-out: % Emax cf. ACh, M1, CHO cells stably expressing human M1
T3 sequence (P11229 1-460): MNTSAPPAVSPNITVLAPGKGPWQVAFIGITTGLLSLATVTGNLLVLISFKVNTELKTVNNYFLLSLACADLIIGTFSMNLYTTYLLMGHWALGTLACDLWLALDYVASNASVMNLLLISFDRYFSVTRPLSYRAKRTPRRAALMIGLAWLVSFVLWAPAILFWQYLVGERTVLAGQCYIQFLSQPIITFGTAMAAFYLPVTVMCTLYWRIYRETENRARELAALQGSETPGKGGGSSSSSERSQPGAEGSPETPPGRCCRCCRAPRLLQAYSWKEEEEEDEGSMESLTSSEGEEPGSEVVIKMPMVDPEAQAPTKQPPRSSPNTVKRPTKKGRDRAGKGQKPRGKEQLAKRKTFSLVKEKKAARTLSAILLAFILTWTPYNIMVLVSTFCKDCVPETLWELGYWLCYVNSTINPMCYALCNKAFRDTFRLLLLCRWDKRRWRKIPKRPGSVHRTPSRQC

[4] = molecular target: human muscarinic M3 receptor (Homo sapiens, UniProt P20309); assay: Alphascreen Surefire phospho-ERK1/2 functional assay, M3; details: for Emax: CHO, read-out: % Emax cf. ACh, M3, CHO cells stably expressing human M3, relative to ACh; for EC50: pEC50 M3, CHO cells stably expressing human M3, phospho-ERK1/2, * = variable results
human muscarinic M3 receptor, sequence (P20309 whole entry): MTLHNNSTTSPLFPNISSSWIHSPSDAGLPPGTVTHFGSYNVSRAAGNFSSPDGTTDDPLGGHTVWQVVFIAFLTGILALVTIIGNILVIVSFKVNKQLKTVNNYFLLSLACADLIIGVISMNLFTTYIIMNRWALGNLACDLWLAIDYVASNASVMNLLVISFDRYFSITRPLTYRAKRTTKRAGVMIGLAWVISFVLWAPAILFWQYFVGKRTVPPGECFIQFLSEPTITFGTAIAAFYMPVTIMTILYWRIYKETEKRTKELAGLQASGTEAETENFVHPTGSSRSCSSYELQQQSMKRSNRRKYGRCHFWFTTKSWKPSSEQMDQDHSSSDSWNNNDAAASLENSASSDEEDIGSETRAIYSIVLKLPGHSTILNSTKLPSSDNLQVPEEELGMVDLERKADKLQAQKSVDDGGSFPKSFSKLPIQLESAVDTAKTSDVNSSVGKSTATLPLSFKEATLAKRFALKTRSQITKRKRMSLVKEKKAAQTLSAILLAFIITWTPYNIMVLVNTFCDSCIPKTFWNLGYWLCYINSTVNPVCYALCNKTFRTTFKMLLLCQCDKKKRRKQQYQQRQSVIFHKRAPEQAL

[5] = CHO cells stably expressing human M4
[6] = CHO cells stably expressing human M1

| Structure (SMILES) | EC50 [1] [nM] | Emax [1] [%] | EC50 [2, 5] [nM] | Emax ([2]; relative to ACh) [%] | EC50 [3, 6] [nM] | Emax ([3]; relative to ACh) [%] | Emax [4] [%] | EC50 [4] [nM] | % Emax cf. ACh, M4 ([2]; CHO cells stably expressing human M4, relative to ACh) [%] | % Emax cf. ACh, M1 ([3]; CHO cells stably expressing human M1, relative to ACh) [%] |
| --- | --- | --- | --- | --- | --- | --- | --- | --- | --- | --- |
| CCOC(=O)N1CCC2(CC(N3CCC(c4nccc(N)n4)CC3)C2)C1 (single isomer, unassigned) [3-9 Isomer 2, ethyl 2-[4-(4-aminopyrimidin-2-yl)piperidin-1-yl]-6-azaspiro[3.4]octane-6-carboxylate] | > 20000 | 2 | 25.1 | 96 | 251 | 103 | 4 | > 20000 | – | – |
| CCOC(=O)N1CCC2(CC(N3CCC(c4cc(C)cnc4OC)CC3)C2)C1 (single isomer, unassigned) [3-12 Isomer 2, ethyl 2-[4-(2-methoxy-5-methylpyridin-3-yl)piperidin-1-yl]-6-azaspiro[3.4]octane-6-carboxylate] | > 20000 | 2 | 3.98 | 110 | 251 | 34 | 5 | > 20000 | – | – |
| CCOC(=O)N1CCC2(CC(N3CCC(c4cccc(OC)n4)CC3)C2)C1 (single isomer, unassigned) [3-13 Isomer 2, ethyl 2-[4-(6-methoxypyridin-2-yl)piperidin-1-yl]-6-azaspiro[3.4]octane-6-carboxylate] | > 20000 | 2 | 12.6 | 82 | 12.6 | 97 | 1 | > 20000 | – | – |
| CCOC(=O)N1CCC2(CC(N3CCC(C4CCCNC4=O)CC3)C2)C1 (single isomer, unassigned) [4-1 Isomer 4, ethyl 2-(2-oxo-3,4′-bipiperidin-1′-yl)-6-azaspiro[3.4]octane-6-carboxylate] | > 20000 | 3 | 50.1 | – | 398 | – | 5 | > 20000 | 68 | 58 |
| CCOC(=O)N1CCC2(CC(N3CCC(C4C(=O)NCCC4C)CC3)C2)C1 (single isomer, unassigned) [4-3 Isomer 2, ethyl 2-(4-methyl-2-oxo-3,4′-bipiperidin-1′-yl)-6-azaspiro[3.4]octane-6-carboxylate] | > 20000 | 9 | 12.6 | 88 | 158 | 103 | 4 | > 20000 | – | – |
| CCOC(=O)N1CCC2(CC(N3CCC(C4CC(C)CNC4=O)CC3)C2)C1 (single isomer, unassigned) [4-4 Isomer 2, ethyl 2-(5-methyl-2-oxo-3,4′-bipiperidin-1′-yl)-6-azaspiro[3.4]octane-6-carboxylate] | > 20000 | 19 | 5.01 | 73 | 31.6 | 97 | 21 | > 20000 | – | – |
| CCOC(=O)N1CCC2(CC(N3CCC(C4CCCN(CC)C4=O)CC3)C2)C1 (single isomer, unassigned) [4-5 Isomer 2, ethyl 2-(1-ethyl-2-oxo-[3,4′-bipiperidin]-1′-yl)-6-azaspiro[3.4]octane-6-carboxylate] | > 20000 | 9 | 15.8 | 60 | 501 | 52 | 9 | > 20000 | – | – |
| CCOC(=O)N1CCC2(CC(N3CCC(C4CCCN(C(C)C)C4=O)CC3)C2)C1 (single isomer, unassigned) [4-6 Isomer 2, ethyl 2-[2-oxo-1-(propan-2-yl)-3,4′-bipiperidin-1′-yl]-6-azaspiro[3.4]octane-6-carboxylate] | > 20000 | 75 | 50.1 | 77 | 126 | 66 | 9 | > 20000 | – | – |
| CCOC(=O)N1CCC2(CC(N3CCC(N4CCCOC4=O)CC3)C2)C1 (single isomer, unassigned) [4-7 Isomer 2, ethyl 2-[4-(2-oxo-1,3-oxazinan-3-yl)piperidin-1-yl]-6-azaspiro[3.4]octane-6-carboxylate] | > 20000 | 1 | 251 | 67 | 3980 | 73 | 10 | > 20000 | – | – |
| CCOC(=O)N1CCC2(CC(N3CCC(N4CCCNC4=O)CC3)C2)C1 (single isomer, unassigned) [4-8 Isomer 1, ethyl 2-[4-(2-oxotetrahydropyrimidin-1(2H)-yl)piperidin-1-yl]-6-azaspiro[3.4]octane-6-carboxylate] | > 20000 | 3 | 63.1 | 74 | 501 | 42 | 8 | > 20000 | – | – |
| CCOC(=O)N1CCC2(CC(N3CCC(N4CCSCC4)CC3)C2)C1 (single isomer, unassigned) [4-12 Isomer 2, ethyl 2-[4-(thiomorpholin-4-yl)piperidin-1-yl]-6-azaspiro[3.4]octane-6-carboxylate] | > 20000 | 7 | 39.8 | 32 | > 20000 | 19 | 14 | > 20000 | – | – |
| CCOC(=O)N1CCC2(CC(N3CCC(N4CCCC(F)(F)C4)CC3)C2)C1 (single isomer, unassigned) [4-13 Isomer 2, ethyl 2-(3,3-difluoro-1,4′-bipiperidin-1′-yl)-6-azaspiro[3.4]octane-6-carboxylate] | > 20000 | 10 | 100 | 59 | 631 | 51 | 13 | > 20000 | – | – |
| CCOC(=O)N1CCC2(CC(N3CCC(N4CCC(F)(F)CC4)CC3)C2)C1 (single isomer, unassigned) [4-14 Isomer 2, ethyl 2-(4,4-difluoro-1,4′-bipiperidin-1′-yl)-6-azaspiro[3.4]octane-6-carboxylate] | > 20000 | 55 | 20 | 48 | 200 | 28 | 0 | > 20000 | – | – |
| CCOC(=O)N1CCC2(CC(N3CCC(N4CCCC[C@@H]4C(=O)OC)CC3)C2)C1 (single isomer, unassigned) [4-15 Isomer 2] | > 20000 | 7 | 63.1 | 113 | 251 | 82 | 13 | > 20000 | – | – |
| CCOC(=O)N1CCC2(CC(N3CCC(N4CCCCCC4C(=O)OC)CC3)C2)C1 (single isomer, unassigned) [5-2 Isomer 2, ethyl 2-{4-[2-(methoxycarbonyl)azepan-1-yl]piperidin-1-yl}-6-azaspiro[3.4]octane-6-carboxylate] | > 20000 | 5 | 50.1 | 96 | 1000 | 58 | 4 | > 20000 | – | – |
